In brackets after ≈: the same amount, converted by molar mass. Several values for one entry are separate records, joined by “and”; a condition that tells them apart may be missing. Identical values can stand only once.
Columns and labels:
[1] = Plasma stability, rat plasma; type: in vitro ADME; settings: 37 °C
[2] = physchem; settings: PBS (99%) with DMSO (1%), 37 °C, aqueous buffer, kinetic from dmso stock, kinetic solubility
Protocol: The resulting solutions were incubated at 37 °C. After 2 h incubation, the samples were read using a BMG LABTECH NEPHELOstar Plus laser nephelometer (Ortenberg, Germany).

[3] = Plasma stability, human plasma; type: in vitro ADME; settings: 37 °C; for remaining at 1 h, 5 μM: read-out: Plasma Stability % Remaining Compound, human, 1 h; for remaining at 6 h, 5 μM: read-out: Plasma Stability % Remaining Compound, human, 6 h
Protocol: The plasma stability of the new compounds was tested using in human, mouse, and rat plasma (Seralab). One hundred μL of 5 μM solutions of the new compounds in plasma were plated and incubated at 37 °C for 0, 60, 120, and 360 min, and then treated with 300 μL of acetonitrile and centrifuged (4000× g; 60 min; 4 °C). Sample quantification was performed by UPLC/MS/MS analysis of the resulting supernatant using a UPLC QSM Waters Acquity apparatus, equipped with a Waters ACQUITY BEH C18 1.7 μm 2.1 × 50 mm column, eluting with 0.1% formic acid in water or in acetonitrile, with a flow of 0.6 mL/min.
Compound concentration was calculated from the MS peak areas and expressed as the percentage of remaining compound at the different tested times.

[4] = target: T1, human serum BChE (hBChE) (Homo sapiens, UniProt P06276); assay: biochemical; settings: for IC50: human serum BChE, Ellman method, mean ± standard error; for increase in hBChE inhibitory activity relative to hybrid 3: relative to dihydroxyanthraquinone hybrid 3
T1 construct: human serum BChE (hBChE); purchased Sigma (Milan, Italy); host or cells: human serum
Protocol: The stock and assay solutions were prepared as follows:
Stock hBChE solution: solution of the lyophilized powder in 0.1% aq. gelatin.
Stock solutions of the new compounds: 1 mM solutions in methanol, with further dilutions in this solvent to the desired concentrations.

[5] = Fish embryo acute toxicity (FET) test in zebrafish embryos; type: in vivo; settings: in vivo, other: embryos exposed by immersion in the test solution, pH 7.4, 72 h of exposure, read-out: LC50 (CI95)
Protocol: (§1) Test solutions were freshly prepared for each experiment and were renewed every 24 h. The maximum tested compound concentration was 100 µM and four additional concentrations were also prepared by applying a 1:2 dilution factor. A 1% DMSO solution was used as a vehicle control.
(§2) Six-well plates were incubated at 26 ± 1 °C under a 14:10 light:dark cycle for 72 h. To assess the potential lethality of the new compounds, we followed, every 24 h, the four parameters that are outlined in the OECD Guideline No. 236: embryo coagulation, lack of somite formation, non-detachment of the tail, and absence of a heartbeat (from 48 h onward). The percentage of lethality at each concentration that was tested for the new compounds was recorded and expressed as mean ± SEM from three or more independent experiments. […] LOAEC values were determined through an ANOVA test with Bonferroni’s post-hoc test for multiple comparisons (significance threshold: p < 0.05).

[6] = test system: zebrafish embryos; assay: as above; type: in vivo; settings: 72 h of exposure, lethality
Protocol: as §1, §2

[7] = Plasma stability, mouse plasma; type: in vitro ADME; settings: 37 °C
[8] = target: T2, human recombinant BACE-1 (hBACE-1) (Homo sapiens, UniProt P56817); design: method as in PMID 24568372; settings: cited from earlier work
T2 construct: purchased Invitrogen, Carlsbad, CA, USA

[9] = PAMPA-BBB
Protocol: The parallel artificial membrane permeability assay for the blood–brain barrier (PAMPA-BBB) [41] was used to assess the in vitro brain permeability of the new compounds. For the assay, the compounds were dissolved in mixtures of PBS and ethanol (70:30).

[10] = Solubility class, classification after ref 70
[11] = Solubility, 2 h, DMSO (1%)/PBS (99%)
[12] = Solubility, 2 h, PBS with 1% DMSO, nephelometry

T1 sequence (P06276 29-602): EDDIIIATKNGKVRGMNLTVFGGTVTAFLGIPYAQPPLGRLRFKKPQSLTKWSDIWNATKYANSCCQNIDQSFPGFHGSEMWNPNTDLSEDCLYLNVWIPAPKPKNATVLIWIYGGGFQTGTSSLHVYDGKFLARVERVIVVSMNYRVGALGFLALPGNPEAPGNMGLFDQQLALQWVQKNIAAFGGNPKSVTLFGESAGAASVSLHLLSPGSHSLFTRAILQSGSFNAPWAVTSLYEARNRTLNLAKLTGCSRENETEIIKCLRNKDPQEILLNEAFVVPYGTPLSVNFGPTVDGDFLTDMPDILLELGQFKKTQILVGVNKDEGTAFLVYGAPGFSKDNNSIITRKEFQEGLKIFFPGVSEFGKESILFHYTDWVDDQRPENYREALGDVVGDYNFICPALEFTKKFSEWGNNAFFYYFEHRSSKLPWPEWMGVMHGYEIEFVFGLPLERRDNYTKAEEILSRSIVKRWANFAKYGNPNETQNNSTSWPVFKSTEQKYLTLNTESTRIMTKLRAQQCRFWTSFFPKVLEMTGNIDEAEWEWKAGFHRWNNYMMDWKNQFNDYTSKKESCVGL
T2 sequence (P56817 46-501): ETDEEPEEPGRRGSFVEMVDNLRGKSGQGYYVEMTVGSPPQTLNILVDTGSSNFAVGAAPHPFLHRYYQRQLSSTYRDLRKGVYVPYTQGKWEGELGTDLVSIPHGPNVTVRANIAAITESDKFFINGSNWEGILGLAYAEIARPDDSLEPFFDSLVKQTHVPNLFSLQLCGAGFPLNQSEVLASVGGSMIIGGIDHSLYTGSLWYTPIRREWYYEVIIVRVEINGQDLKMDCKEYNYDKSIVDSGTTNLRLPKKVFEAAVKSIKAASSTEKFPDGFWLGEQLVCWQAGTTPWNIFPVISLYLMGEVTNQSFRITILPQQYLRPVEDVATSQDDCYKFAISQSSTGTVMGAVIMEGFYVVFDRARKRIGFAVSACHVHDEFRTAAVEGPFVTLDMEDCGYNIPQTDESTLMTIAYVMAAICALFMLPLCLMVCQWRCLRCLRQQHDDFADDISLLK

SMILES	Solubility (kinetic solubility, 37 °C, 2 h, PBS with 1% DMSO, nephelometry) [µM]	increased aqueous solubility relative to the initial lead (relative to lead 3) [fold]	% hydrolyzed in rat plasma after 6 h [1] [%]	solubility at 2 h [2, 10] [µg/mL]	solubility at 2 h [2, 11] [µg/mL]	solubility at 2 h [2, 12] [µM]	remaining at 1 h, 5 μM [3] [%]	remaining at 6 h, 5 μM ([3]; 6 h) [%]	IC50 [4]	increase in hBChE inhibitory activity relative to hybrid 3 [4]	LC50 at 72 h [5] [nM]	LOAEC [6] [µM]	% hydrolyzed in mouse plasma after 6 h [7] [%]	% hydrolyzed in human plasma after 6 h ([3]; 6 h) [%]	BACE-1 inhibition (in words) [8]	BBB permeation class ([9]; CNS+ threshold Pe over 5.21 × 10^−6 cm/s)	Brain Permeability Pe ([9]; mean ± SD)
CC(=O)c1cccc(C(=O)NCCCCCCCCCNc2c3c(nc4cc(Cl)ccc24)CC2C=C(C)CC3C2)c1 (stereo not shown) [Compound 7, 3-Acetyl-N-{9-[(3-chloro-6,7,10,11-tetrahydro-9-methyl-7,11-methanocycloocta[b]quinolin-12-yl)amino]nonyl}benzamide]	18.1 (≈ 10.4 µg/mL)	2	14.2	10 to 100	11	18	100	100	13 nM and 12.7 nM	40–50 fold	> 100000						
CC1=CC2Cc3nc4cc(Cl)ccc4c(NCCCCCCCCCNC(=O)c4cccc(C(=O)c5ccccc5)c4)c3C(C1)C2 (stereo not shown) [Compound 6, 3-Benzoyl-N-{9-[(3-chloro-6,7,10,11-tetrahydro-9-methyl-7,11-methanocycloocta[b]quinolin-12-yl)amino]nonyl}benzamide]				< 10	8.4	12.5	100	90.8	16.5 ± 1.9 nM	40–50 fold	40100	50					
CC1=CC2Cc3nc4cc(Cl)ccc4c(NCCCCCCCCCNC(=O)c4ccc5c(c4)C(=O)c4ccccc4C5=O)c3C(C1)C2 (stereo not shown) [Compound 4, N-{9-[(3-Chloro-6,7,10,11-tetrahydro-9-methyl-7,11-methanocycloocta[b]quinolin-12-yl)amino]nonyl}anthraquinone-2-carboxamide]				< 10	5.9	8.4	94.2	97.6	1250 ± 130 nM		> 100000						
CC1=CC2Cc3nc4cc(Cl)ccc4c(NCCCCCCCCCNC(=O)c4ccc5c(c4)C(=O)c4ccccc4-5)c3C(C1)C2 (stereo not shown) [Compound 5, N-{9-[(3-Chloro-6,7,10,11-tetrahydro-9-methyl-7,11-methanocycloocta[b]quinolin-12-yl)amino]nonyl}-9-fluorenone-2-carboxamide]				< 10	5.4	8.1	88.5	80.4	883 ± 55 nM		> 100000						
CC1=CC2Cc3nc4cc(Cl)ccc4c(NCCCCCCCCCNC(=O)c4cc(O)c5c(c4)C(=O)c4cccc(O)c4C5=O)c3C(C1)C2 (stereo not shown) [Compound 3]			32.1	< 10	6.3	8.6	100				> 100000	100	7.1	15.6	found to inhibit BACE-1	CNS+ (high BBB permeation (CNS+), with Pe (10^−6 cm/s) > 5.21)	21.5 ± 0.7 10^−6 cm s^−1
